Assay results published in a melting point compilation (Tetko et al.; mined from patent text by program, amines drawn as free bases though some values may be those of a salt).

Which melting point does the source give for NC(=O)N(c1ccc(F)cc1)c1ccc(F)cc1 here?
The melting point was 150 to 153 °C.

With O=C(CBr)Cc1c(F)cccc1Cl as the molecule, how does the melting point read?
The melting point was 47 °C.

With O=C1CC(c2cccc(Cl)c2)c2cc(C(=O)c3ccc([N+](=O)[O-])cc3)ccc2N1 (configuration not stated) as the molecule, how does the melting point read?
The melting point was 147 °C.

For NS(=O)(=O)c1ccc(CCN2CCN(c3ccncc3)CC2)cc1, which melting point is on record?
The melting point was 203 to 204 °C.

With CCOP(=O)(CCOC(=O)c1c(I)c(NC(C)=O)c(I)c(NC(C)=O)c1I)OCC as the molecule, how does the melting point read?
Its melting point is 249 to 251 °C.

With CCOc1ccccc1-c1nc2n(C3CCCC3)[nH]c(CC)c-2c(=O)n1 as the molecule, how does the melting point read?
Its melting point is 146 to 147 °C.

With CCc1cccc(C)c1CNc1cc(C(=O)O)nc2c1nc(C)n2C as the molecule, how does the melting point read?
Its melting point is 235 to 238 °C.

Which melting point does the source give for CCCCc1c(C)c2ccc(OCCCN3CCC(NC(=O)c4ccccc4)CC3)cc2oc1=O here?
Its melting point is 170 to 171 °C.

For O=P(c1ccccc1)(c1ccccc1)c1ccc(F)cc1F, which melting point is on record?
Its melting point is 111 to 112 °C.

With COc1cc2ncc(C#N)c(Nc3ccc(C)c(Cl)c3)c2cc1OC as the molecule, how does the melting point read?
Its melting point is greater than 250 °C.

For C=C1c2c(ccc(OC(C)=O)c2OC(C)=O)C(=O)N2CCCCC12 (configuration not stated), which melting point is on record?
Its melting point is 129 to 132 °C.

Which melting point does the source give for NS(=O)(=O)c1ccc(SCCO)s1 here?
The melting point was 46.5 to 47.5 °C.

For CCOC(=O)C(C)(NC(C)=O)C(=O)OCC, which melting point is on record?
The melting point was 89 to 90 °C.

Which melting point does the source give for COC(=O)/C(O)=C1\CCc2cc(OC)ccc2C1=O here?
Its melting point is 77.3 to 77.8 °C.

With COCOc1ccc(CCc2c(CC(N)=O)cc(OC)c(OC)c2OC)cc1OCc1ccccc1 as the molecule, how does the melting point read?
The melting point was 73 to 74 °C.

For CC(CN1CCC(c2noc3cc(F)ccc23)CC1)N1Cc2ccccc2C1 (configuration not stated), which melting point is on record?
The melting point was 164 to 165 °C.

For CC(C)(C)N1C(=O)c2cnc(-c3ccccc3)nc2Nc2ccccc21, which melting point is on record?
The melting point was 221 to 222 °C.

For O=C1c2ccccc2SCC1(CO)CO, which melting point is on record?
Its melting point is 136 to 139 °C.

For COCCOc1ccc(/C=C/C(=O)O)c(Oc2ncc(NC(=O)OC(C)(C)C)cc2C)c1, which melting point is on record?
The melting point was 159 to 160 °C.

For O=C(O)CCCCN(Cc1ccccc1)Cc1ccccc1, which melting point is on record?
The melting point was 202 to 205 °C.

Which melting point does the source give for CSc1[nH]c(-c2cnn(-c3c(Cl)cc(C(F)(F)F)cc3Cl)n2)nc1[N+](=O)[O-] here?
The melting point was 153 to 155 °C.

With O=C1CCCC(Sc2ccccc2)=C1C(=O)c1ccc(Cl)c(OCCn2cnnn2)c1Cl as the molecule, how does the melting point read?
The melting point was 64 to 70 °C.

With CCC(CNC(=O)Cc1c(Cl)cncc1Cl)c1cccc(OC)c1 (configuration not stated) as the molecule, how does the melting point read?
Its melting point is 104 to 105 °C.

For N#Cc1cccc(C(=O)c2ccc(Cl)cc2)c1, which melting point is on record?
Its melting point is 142 °C.

Which melting point does the source give for O=c1c2c(Br)cc(Br)cc2n(Cc2ccccc2)c(=O)n1Cc1ccccc1 here?
The melting point was 169 to 172 °C.

For CCCCN1C(=O)CN2C(=O)CN(c3ccc(C(C)C)cc3Br)c3nc(C)nc1c32, which melting point is on record?
Its melting point is 207 to 208 °C.

For CSc1cccc2c1Sc1ccc(O)cc1N2, which melting point is on record?
Its melting point is 188 to 190 °C.

For CC=CCn1c(C)c(C)c2cnnc(OCc3cccs3)c21, which melting point is on record?
The melting point was 72 to 75 °C.

Which melting point does the source give for COc1ccc(C)cc1NC(=O)Nc1ccc2c(c1)CCN(C(=O)Nc1ccc(OCCO)cc1Cl)C2 here?
Its melting point is 110 to 113 °C.

For COc1cc2c(Nc3cccc(Cl)c3F)ncnc2cc1OC1CCN(C(=O)C2(O)CC2)CC1, which melting point is on record?
The melting point was 177 to 178 °C.

With COC(=O)c1c(OC)ccc(NC(=O)C(F)(F)F)c1OC as the molecule, how does the melting point read?
The melting point was 112 to 113 °C.

For CCOc1cc(C(=O)c2c(-c3ccc(OC)cc3)sc3cc(OC)ccc23)cc(OCC)c1OCC, which melting point is on record?
The melting point was 108 to 110 °C.

For CSCC[C@H](NC(=O)OCc1ccccc1)C(=O)[C@@H](C(N)c1ccccc1)[C@H](O)C(=O)N1C[C@@H](Cl)C[C@H]1C(=O)NC(C)(C)C (some centres not stated), which melting point is on record?
Its melting point is 81 to 88 °C.

For O=S(=O)(NCCc1ccc(CCl)cc1)c1ccc(Cl)cc1, which melting point is on record?
Its melting point is 96 to 98 °C.

For CCCc1cc(C#N)sc1-c1ccc2c(c1)C(C)(C)OC(=O)N2, which melting point is on record?
The melting point was 160 to 162 °C.

For CCCN1CCC(c2ccccc2)=C(C(=O)NCc2ccccc2)C1, which melting point is on record?
The melting point was 96 to 98 °C.

For CC1CCOC(CBr)(c2ccc(Cl)cc2Cl)O1 (configuration not stated), which melting point is on record?
Its melting point is 69 to 70.5 °C.

With COc1ccc(C(=O)NC2CCCCC2)c2c1OCC2CC(=O)O (configuration not stated) as the molecule, how does the melting point read?
The melting point was 246 to 247 °C.

For Cc1cc2c(F)cc(F)c(-n3c(=O)cc(C(F)(F)F)n(C)c3=O)c2o1, which melting point is on record?
Its melting point is 176 to 178 °C.

Which melting point does the source give for COc1cc(C(=O)C=Cc2ccc(Br)cc2)ccc1OC1CCCCO1 (configuration not stated) here?
Its melting point is 142 to 145 °C.

Which melting point does the source give for COc1cc(OC)nc(Sc2sccc2[N+](=O)[O-])n1 here?
Its melting point is 199 to 201 °C.

For CC1(C)CCC(C)(C)c2cc(C3=NN(c4ccc(C(=O)O)cc4)CC3)ccc21, which melting point is on record?
Its melting point is 276 to 278 °C.

For CCOC(=O)c1cnn(-c2ccccn2)c1N, which melting point is on record?
Its melting point is 92 to 93 °C.

Which melting point does the source give for N#Cc1ccc(-c2ccc(-c3ccc(C#N)cn3)o2)cc1 here?
The melting point was 301 to 302 °C.

For O=[N+]([O-])c1cc(C(c2ccc(O)c([N+](=O)[O-])c2)(C(F)(F)F)C(F)(F)F)ccc1O, which melting point is on record?
Its melting point is 119 to 122 °C.

Which melting point does the source give for C[C@@H](c1ccccc1)N1C[C@H]2CCOC(=O)[C@H]2C1 here?
The melting point was 86 to 87 °C.

With Nc1cccc2c1C(=O)C1=C(CCCC1)C2=O as the molecule, how does the melting point read?
The melting point was 189 to 191 °C.

Which melting point does the source give for FC(F)(F)CSc1nc2cc(Cl)c(Cl)cc2[nH]1 here?
The melting point was 144 to 146 °C.

With COc1cccc2c1Sc1ccc(C(C)C(=O)O)cc1C(=O)C2 (configuration not stated) as the molecule, how does the melting point read?
The melting point was 176 to 178 °C.

With N#CN=C(Nc1cccnc1)NC1(c2cccc(Cl)c2)CCC1 as the molecule, how does the melting point read?
The melting point was 102 to 104 °C.

For CCCCCCCCCCCCCCCCOC(=O)Cl, which melting point is on record?
Its melting point is greater than 230 °C.

For O=C(O)CC(=O)OCC(Cl)(Cl)Cl, which melting point is on record?
The melting point was 42 to 43 °C.

For Cc1nc2ccc(NC(=O)COCc3ccccc3)cc2c(=O)n1C1CCC(=O)NC1=O (configuration not stated), which melting point is on record?
The melting point was 248 to 250 °C.

Which melting point does the source give for Cc1ccc(S(=O)(=O)Oc2ccc(S(=O)(=O)c3c(-c4ccccc4)noc3C(C)C)cc2)cc1 here?
Its melting point is 148 to 149 °C.

For N#CCCCC(N)=NO, which melting point is on record?
Its melting point is 99.5 to 101 °C.

With CCCCc1nc2cnc3ccccc3c2n1CC1(O)CCOCC1 as the molecule, how does the melting point read?
Its melting point is 180 to 181 °C.

For Cc1sc(N2CCOCC2)nc1/C=C/c1cn(-c2ccccc2)nc1O, which melting point is on record?
The melting point was 278 to 279 °C.

With O=C(O)CCC(=O)c1ccc(Oc2ccc(NC(=O)c3ccc(Cl)c(Cl)c3)cc2F)cc1 as the molecule, how does the melting point read?
Its melting point is 205 to 208 °C.

With CCCc1nc2c(N)nc3cc(-c4cccc(CN)c4)ccc3c2s1 as the molecule, how does the melting point read?
Its melting point is 168 to 171 °C.

With COc1cc2[nH]c(C)c(CCN3CCN(NC(=O)Nc4ccccc4)CC3)c2cc1OC as the molecule, how does the melting point read?
Its melting point is 170 to 173 °C.

For CC(C)(C#N)NC(=O)Sc1ccccc1, which melting point is on record?
The melting point was 152 to 155 °C.

With CN1Cc2c(-c3nc(CN4C(=O)c5ccccc5C4=O)no3)ncn2-c2cccc(Cl)c2C1=O as the molecule, how does the melting point read?
The melting point was 237 to 239 °C.

With CSc1cnc2cc(C)sc2c1O as the molecule, how does the melting point read?
The melting point was 222 to 225 °C.

For CCOc1ccc(NC=C(C#N)C(=O)Nc2cc(OC)c(Cl)cc2Cl)cc1F, which melting point is on record?
Its melting point is 245 to 247 °C.

For CCCc1ccc(NC2CCN(c3ccc(OC[C@@]4(C)Cn5cc([N+](=O)[O-])nc5O4)cc3)CC2)cc1, which melting point is on record?
The melting point was 222 to 223 °C.

With O=C1N[C@@H](C(=O)NO)C[C@H]1c1ccc(-c2ccc(F)cc2)cc1 as the molecule, how does the melting point read?
Its melting point is 193 to 202 °C.

With COc1cccc2nc(C(F)(F)F)oc(=O)c12 as the molecule, how does the melting point read?
The melting point was 88 to 91 °C.

With O=C1C(=CNCCO)Cc2c(Cl)cccc21 as the molecule, how does the melting point read?
The melting point was 164 to 166 °C.

For COc1ccc2c(c1)cc(C(=O)c1cc3ccccc3n1S(=O)(=O)c1ccccc1)n2S(=O)(=O)c1ccccc1, which melting point is on record?
The melting point was 205 °C.

With FC(F)(F)/C(=C(\c1ccccc1)c1ccc(OCCN2CCOCC2)cc1)c1ccccc1 as the molecule, how does the melting point read?
Its melting point is 84 to 89 °C.

Which melting point does the source give for COC(CC(=O)c1ccccc1)c1ccc(Cl)cc1F (configuration not stated) here?
The melting point was 59 to 61 °C.

With CCCCCCCCCCOc1cnc(-c2ccc(C(C)O)cc2)nc1 (single isomer, unassigned; (+)) as the molecule, how does the melting point read?
Its melting point is 65 to 66 °C.
